From patent US8183235B2, “Dihydronaphthalene compound and use thereof” (Tokyo University of Science Educational Foundation …, priority 2007, dated 2012)
Structures can show the parent of a compound that is named as a salt. Residues, ends and D or L forms follow the SMILES beside them. *: point of attachment. Cbz = O=C(OCc1ccccc1)*

Tests used:
[1] = target: 20S proteasome chymotrypsin-like activity (Homo sapiens, UniProt P28074); test: Chymotrypsin-like activity inhibition test; assay type: biochemical; conditions: for remaining activity at 10 µM: read-out: % Control, Chymotrypsin-like Activity
[2] = target: 20S proteasome caspase-like activity (Homo sapiens, UniProt P28072); test: Caspase-like activity inhibition test; assay type: biochemical; conditions: for remaining activity at 10 µM: read-out: % Control, Caspase-like Activity
20S proteasome = 20S proteasome (Homo sapiens, UniProt P28072+P28074+Q99436); test: Proteasome inhibition activity, overall judgement; assay type: biochemical; conditions: for Proteasome selectivity: judgement; for The evaluations (proteasome inhibition activity): overall judgement positive/negative
U251 = test: Inhibition of propagation of central nervous system cancer cells (sulforhodamin B); assay type: cell-based; conditions: Homo sapiens, U-251, 48 h; U251, two days of cultivation
Source text: (§1) As a comparison for the inhibition activity, tamoxifen citrate (TAM) was used. In the Table, the concentration units are μM.

SF-268 = test: as above; assay type: cell-based; conditions: Homo sapiens, 48 h; SF-268, two days of cultivation
Source text: as §1

SF-295 = test: as above; assay type: cell-based; conditions: Homo sapiens, 48 h; SF-295, two days of cultivation
Source text: as §1

SNB-75 = test: as above; assay type: cell-based; conditions: Homo sapiens, 48 h; SNB-75, two days of cultivation
Source text: as §1

SNB-78 = test: as above; assay type: cell-based; conditions: Homo sapiens, 48 h; SNB-78, two days of cultivation
Source text: as §1

SF-539 = test: as above; assay type: cell-based; conditions: Homo sapiens, 48 h; SF-539, two days of cultivation
Source text: as §1

[3] = target: 20S proteasome trypsin-like activity (Homo sapiens, UniProt Q99436); test: Trypsin-like activity inhibition test; assay type: biochemical; conditions: for remaining activity at 10 µM: read-out: % Control, Trypsin-like Activity
MKN7 = test: Proliferation inhibition of stomach cancer cells; assay type: cell-based; conditions: Homo sapiens, MKN-7
Description: as §1
(§2) In the same way as in Example 9, the proliferation inhibition activity of naforidaifens A to G was measured with respect to six types of stomach cancer cells (St-4, MKN1, MKN7, MKN28, MKN45, MKN74). In the Table, the concentration units are μM.

St-4 = test: Proliferation inhibition of stomach cancer cells; assay type: cell-based; conditions: Homo sapiens
Description: as §1, §2

MKN74 = test: Proliferation inhibition of stomach cancer cells; assay type: cell-based; conditions: Homo sapiens, MKN-74
Description: as §1, §2

MKN45 = test: Proliferation inhibition of stomach cancer cells; assay type: cell-based; conditions: Homo sapiens, MKN-45
Description: as §1, §2

MKN28 = test: Proliferation inhibition of stomach cancer cells; assay type: cell-based; conditions: Homo sapiens, MKN-28
Description: as §1, §2

MKN1 = test: Proliferation inhibition of stomach cancer cells; assay type: cell-based; conditions: Homo sapiens, MKN-1
Description: as §1, §2

Cathepsin B = test: Cathepsin-like activity inhibition test; assay type: biochemical
Description: Cathepsin-Like Activity Inhibition Test
(§3) 1) To 20S proteasome, naforidaifen B adjusted to a concentration of 10 μM was added, and incubated at 30° C. for 10 min.
2) To the above test system, fluorescence labeled cathepsin including a 20S proteasome segmenting sequence was added, and reacted for 1 hr at 30° C.
(§4) 3) The fluorescent substance (AMC) released by the above reaction was excited with 360 nm light and assayed with 460 nm light.
(§5) 4) A test system to which naforidaifen B was not added was measured in the same way as (1) to (3) above, and the enzyme activity for the case of using naforidaifen B was measured.
(§6) 5) Stepwise diluted solutions containing naforidaifen B were prepared, and after carrying out the same evaluations as in (1) to (4), the 50% inhibition concentration (IC50) was determined.
6) As a positive control of the enzyme activity, the known proteasome inhibitor Clasto-Lactacystin β-Lactone (Lactacystin activator) and MGI32 were evaluated with the steps (1) to (5).

α-chymotrypsin = α-chymotrypsin (Bos taurus, UniProt P00766); test: α-Chymotrypsin-like activity inhibition test; assay type: biochemical
Description: α-Chymotrypsin-Like Activity Inhibition Test
as §3
2) To the above test system, fluorescence labeled α-chymotrypsin including a 20S proteasome segmenting sequence was added, and reacted for 1 hr at 30° C.
as §4, §5, §6
6) As a positive control of the enzyme activity, the well-known proteasome inhibitor Clasto-Lactacystin β-Lactone (Lactacystin activator) and MGI32 were evaluated with the steps (1) to (5).

OVCAR-8 = test: Proliferation inhibition of ovarian cancer cells; assay type: cell-based; conditions: Homo sapiens
Description: as §1
(§7) In the same way as in Example 9, the proliferation inhibition activity of naforidaifens A to G was measured with respect to five types of ovarian cancer cells (OVCAR-3, OVCAR-4, OVCAR-5, OVCAR-8, AND SK-OV-3). In the Table, the concentration units are μM.

OVCAR-3 = test: Proliferation inhibition of ovarian cancer cells; assay type: cell-based; conditions: Homo sapiens
Description: as §1, §7

SK-OV-3 = test: Proliferation inhibition of ovarian cancer cells; assay type: cell-based; conditions: Homo sapiens
Description: as §1, §7

OVCAR-4 = test: Proliferation inhibition of ovarian cancer cells; assay type: cell-based; conditions: Homo sapiens
Description: as §1, §7

OVCAR-5 = test: Proliferation inhibition of ovarian cancer cells; assay type: cell-based; conditions: Homo sapiens
Description: as §1, §7

HCT-116 = test: Proliferation inhibition of colon cancer cells; assay type: cell-based; conditions: Homo sapiens
Description: as §1
(§8) In the same way as in Example 9, the proliferation inhibition activity of naforidaifens A to G was measured with respect to five types of colon cancer cells (HCC2998, KM-12, HT-29, HCT-15, and HCT-116). In the Table, the concentration units are μM.

HT-29 = test: Proliferation inhibition of colon cancer cells; assay type: cell-based; conditions: Homo sapiens
Description: as §1, §8

HCC2998 = test: Proliferation inhibition of colon cancer cells; assay type: cell-based; conditions: Homo sapiens, HCC 2998
Description: as §1, §8

KM-12 = test: Proliferation inhibition of colon cancer cells; assay type: cell-based; conditions: Homo sapiens, KM12
Description: as §1, §8

HCT-15 = test: Proliferation inhibition of colon cancer cells; assay type: cell-based; conditions: Homo sapiens
Description: as §1, §8

Compound | IC50 [1] | remaining activity at 10 µM [1] | GI50 (U251) | GI50 (SF-268) | GI50 (SF-295) | GI50 (SNB-75) | GI50 (SNB-78) | GI50 (SF-539) | GI50 (MKN7) | GI50 (St-4) | GI50 (MKN74) | GI50 (MKN45) | GI50 (MKN28) | GI50 (MKN1) | GI50 (OVCAR-8) | GI50 (OVCAR-3) | GI50 (SK-OV-3) | GI50 (OVCAR-4) | GI50 (OVCAR-5) | GI50 (HCT-116) | other results
CC(C)[C@H](O)[C@@]12NC(=O)[C@H](C)[C@@H]1OC2=O [Clasto-Lactacystin β-Lactone, reference compound] | 0.039 µM |  |  |  |  |  |  |  |  |  |  |  |  |  |  |  |  |  |  |  | % Control, Chymotrypsin-like Activity ([1]; Concentration 10 μM): 0%
CC(C)C[C@@H](C=O)NC(=O)[C@H](CC(C)C)NC(=O)[C@H](CC(C)C)NC(=O)OCc1ccccc1 [MG132, reference compound] (Cbz-Leu-Leu-Leu-aldehyde) |  | 0% |  |  |  |  |  |  |  |  |  |  |  |  |  |  |  |  |  |  | 
c1ccc(C2=C(c3ccc(OCCN4CCCC4)cc3)c3ccc(OCCN4CCCC4)cc3CC2)cc1 [Naforidaifen B, 4-[4-(2-pyrrolidine-1-yl-ethoxy)phenyl]-7-(2-pyrrolidine-1-yl-ethoxy)-3-phenyl-1,2-dihydronaphthalene] | 4.6 µM | 27.1% | 1.58 µM | 2.09 µM | 1.91 µM | 2 µM | 1.91 µM | 1.86 µM | 1.58 µM | 1.86 µM | 1.66 µM | 1.66 µM | 2.19 µM | 1.48 µM | 3.8 µM | 1.58 µM | 3.09 µM | 1.32 µM | 1.62 µM | 1.26 µM | IC50 [2]: 2.5 µM; remaining activity at 10 µM [2]: 16.5%; Proteasome selectivity (20S proteasome): present; The evaluations (proteasome inhibition activity) (20S proteasome): positive; IC50 [3]: 8.6 µM; remaining activity at 10 µM [3]: 35.3%; Cathepsin B inhibition (Cathepsin B): none; α-chymotrypsin inhibition (α-chymotrypsin): none; GI50 (HT-29): 1.45 µM; GI50 (HCC2998): 1.58 µM; GI50 (KM-12): 1.95 µM; GI50 (HCT-15): 2.34 µM
c1ccc(C2=C(c3ccc(OCCN4CCOCC4)cc3)c3ccc(OCCN4CCOCC4)cc3CC2)cc1 [Naforidaifen D, 4-[4-(2-morpholine-1-yl-ethoxy)phenyl]-7-(2-morpholine-1-yl-ethoxy)-3-phenyl-1,2-dihydronaphthalene] | 6.8 µM | 22.1% | 15.5 µM | 38.9 µM | 14.5 µM | 20.4 µM | 28.8 µM | 15.8 µM | 19.5 µM | 15.5 µM | 19.5 µM | 16.6 µM | 45.7 µM | 18.6 µM | 25.7 µM | 17.4 µM | 15.5 µM | 18.6 µM | 6.92 µM | 14.8 µM | IC50 [2]: 4.6 µM; remaining activity at 10 µM [2]: 21.9%; Proteasome selectivity (20S proteasome): present; The evaluations (proteasome inhibition activity) (20S proteasome): positive; IC50 [3]: 4.1 µM; remaining activity at 10 µM [3]: 21.6%; Cathepsin B inhibition (Cathepsin B): none; α-chymotrypsin inhibition (α-chymotrypsin): none; GI50 (HT-29): 12.6 µM; GI50 (HCC2998): 17.8 µM; GI50 (KM-12): 20 µM; GI50 (HCT-15): 19.1 µM
CCN(CC)CCOc1ccc(C2=C(c3ccccc3)CCc3cc(OCCN(CC)CC)ccc32)cc1 [Naforidaifen E, 4-[4-(2-diethylamino-1-yl-ethoxy)phenyl]-7-(2-diethylamino-1-yl-ethoxy)-3-phenyl-1,2-dihydronaphthalene] | 9.9 µM | 49.6% | 1.51 µM | 1.82 µM | 1.82 µM | 1.51 µM | 1.62 µM | 1.86 µM | 1.41 µM | 1.55 µM | 1.23 µM | 1.66 µM | 1.82 µM | 1.41 µM | 2.45 µM | 1.86 µM | 1.91 µM | 2.19 µM | 1.58 µM | 1.2 µM | IC50 [2]: > 10 µM; remaining activity at 10 µM [2]: 54.6%; Proteasome selectivity (20S proteasome): present; The evaluations (proteasome inhibition activity) (20S proteasome): positive; IC50 [3]: > 10 µM; remaining activity at 10 µM [3]: 162%; Cathepsin B inhibition (Cathepsin B): none; α-chymotrypsin inhibition (α-chymotrypsin): none; GI50 (HT-29): 0.813 µM; GI50 (HCC2998): 1.58 µM; GI50 (KM-12): 1.95 µM; GI50 (HCT-15): 1.58 µM
CC/C(=C(\c1ccccc1)c1ccc(OCCN(C)C)cc1)c1ccccc1 [TAM, tamoxifen citrate, reference compound] |  |  | 7.76 µM | 12 µM | 4.17 µM | 5.01 µM | 13.5 µM | 3.72 µM | 5.25 µM | 6.31 µM | 3.24 µM | 8.32 µM | 6.31 µM | 10.2 µM | 11.2 µM | 4.68 µM | 20 µM | 6.03 µM | 4.37 µM | 7.24 µM | GI50 (HT-29): 2.34 µM; GI50 (HCC2998): 2.95 µM; GI50 (KM-12): 3.55 µM; GI50 (HCT-15): 5.89 µM
